Reference: US10300058B2, “Tyrosine kinase inhibitor and uses thereof” (Xuanzhu Pharma Co., Ltd., priority 2014, dated 2019)
pIC50: −log10 of the molar value. Read-outs that look alike come from different tables or passages of the source.

Legend:
EGFR T790M = EGFR T790M (Homo sapiens (Human), UniProt P00533, T790M); experiment: Mobility Shift Assay, in vitro enzyme-inhibiting activity, EGFR T790M; type: biochemical; details: for pIC50: Km ATP; for Selectivity (WT/T790M): ratio of IC50
Procedure: (§1) 1. Preparation of Reagents
(§2) 2. Preparation of a Compound Solution
(§3) (1) To the second well of a 96-well plate, 5 μL 10 mM compound (dissolved in DMSO) was added, and 95 μL 100% DMSO was added to prepare 100 μL 0.5 mM compound.
(§4) (2) To other wells, 60 μL 100% DMSO was added. 20 μL compound from the second well was added to the third well, and 4-fold dilution was further performed to get 10 diluted concentrations.
(§5) (3) To the first well and the twelfth well of the 96-well plate, 100 μL 100% DMSO was separately added, and the two wells were used as control wells.
(§6) (4) 10 μL from each well of the 96-well plate was added to another 96-well plate, and 90 μL 1-fold kinase buffer was added.
(§7) (5) 5 μL from the 96-well plate was added to another 384-well plate, for example, transferred from A1 well of the 96-well plate to A1 and A2 wells of the 384-well plate, and transferred from A2 well of the 96-well plate to A3 and A4 wells of the 384-well plate, and so on.
(§8) To 384-well plate, 10 μL 2.5-fold enzyme solution was added, and incubated at room temperature for 10 min.
(§9) (5) Kinase reaction and stop
(§10) After incubation at 28° C. for a period of time (depending on kinase), 25 μL stop solution was added.
(§11) 4. Data on percent conversion was read by Caliper.
(§12) (1) Data on enzyme activity was obtained by Caliper program;
(§13) (2) Inhibition rate of enzyme activity was calculated from the data on enzyme activity by the following formula: Inhibition rate(%)=(maximal value−the measured value of a test compound)/(maximal value-minimal value)×100,
(§14) wherein, the maximal value represents the measured value of DMSO control; and the minimal value represents the measured value of blank control.
(§15) (3) Calculation of IC50 value by XLFit excel.

EGFR L858R = EGFR L858R (Homo sapiens (Human), UniProt P00533, L858R); experiment: Mobility Shift Assay, in vitro enzyme-inhibiting activity, EGFR L858R; type: biochemical; details: for pIC50: Km ATP; for Selectivity WT/L858R: ratio of IC50
Chain of EGFR L858R (P00533 25-1210 L858R): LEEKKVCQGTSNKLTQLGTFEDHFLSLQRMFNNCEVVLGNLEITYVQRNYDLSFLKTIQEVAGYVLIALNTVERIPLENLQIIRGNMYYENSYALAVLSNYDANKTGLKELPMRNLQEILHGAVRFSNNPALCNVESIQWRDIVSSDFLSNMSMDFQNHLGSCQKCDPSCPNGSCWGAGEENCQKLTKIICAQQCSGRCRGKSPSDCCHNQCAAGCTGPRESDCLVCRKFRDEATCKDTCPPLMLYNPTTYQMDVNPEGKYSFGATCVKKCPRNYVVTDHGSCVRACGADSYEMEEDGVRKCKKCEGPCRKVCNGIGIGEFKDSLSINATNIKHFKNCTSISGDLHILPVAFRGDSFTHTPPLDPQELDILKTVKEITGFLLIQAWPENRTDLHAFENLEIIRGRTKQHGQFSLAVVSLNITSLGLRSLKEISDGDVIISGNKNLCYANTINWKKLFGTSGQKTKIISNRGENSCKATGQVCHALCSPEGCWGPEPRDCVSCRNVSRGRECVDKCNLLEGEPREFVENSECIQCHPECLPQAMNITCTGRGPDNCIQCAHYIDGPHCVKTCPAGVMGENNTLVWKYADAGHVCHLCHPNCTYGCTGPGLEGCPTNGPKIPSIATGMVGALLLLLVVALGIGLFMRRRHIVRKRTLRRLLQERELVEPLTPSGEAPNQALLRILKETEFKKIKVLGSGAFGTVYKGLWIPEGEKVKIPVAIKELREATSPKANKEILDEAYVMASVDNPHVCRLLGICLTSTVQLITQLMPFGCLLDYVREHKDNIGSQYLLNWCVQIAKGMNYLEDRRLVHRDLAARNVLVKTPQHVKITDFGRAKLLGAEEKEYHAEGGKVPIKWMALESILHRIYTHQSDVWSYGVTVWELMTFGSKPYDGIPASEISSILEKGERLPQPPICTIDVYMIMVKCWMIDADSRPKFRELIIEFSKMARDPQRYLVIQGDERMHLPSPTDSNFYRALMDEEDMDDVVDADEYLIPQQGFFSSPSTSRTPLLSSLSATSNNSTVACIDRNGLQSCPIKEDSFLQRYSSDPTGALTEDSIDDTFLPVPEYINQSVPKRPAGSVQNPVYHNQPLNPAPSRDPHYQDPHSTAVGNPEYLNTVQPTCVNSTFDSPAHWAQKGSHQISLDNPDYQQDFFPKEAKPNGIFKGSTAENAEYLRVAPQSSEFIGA
Procedure: as §1, §2, §3, §4, §5, §6, §7, §8, §9, §10, §11, §12, §13, §14, §15

wild-type EGFR (WT EGFR) = wild-type EGFR (WT EGFR) (Homo sapiens (Human), UniProt P00533); experiment: Mobility Shift Assay, in vitro enzyme-inhibiting activity, wild-type EGFR; type: biochemical; details: Km ATP
Chain of wild-type EGFR (WT EGFR) (P00533 25-1210): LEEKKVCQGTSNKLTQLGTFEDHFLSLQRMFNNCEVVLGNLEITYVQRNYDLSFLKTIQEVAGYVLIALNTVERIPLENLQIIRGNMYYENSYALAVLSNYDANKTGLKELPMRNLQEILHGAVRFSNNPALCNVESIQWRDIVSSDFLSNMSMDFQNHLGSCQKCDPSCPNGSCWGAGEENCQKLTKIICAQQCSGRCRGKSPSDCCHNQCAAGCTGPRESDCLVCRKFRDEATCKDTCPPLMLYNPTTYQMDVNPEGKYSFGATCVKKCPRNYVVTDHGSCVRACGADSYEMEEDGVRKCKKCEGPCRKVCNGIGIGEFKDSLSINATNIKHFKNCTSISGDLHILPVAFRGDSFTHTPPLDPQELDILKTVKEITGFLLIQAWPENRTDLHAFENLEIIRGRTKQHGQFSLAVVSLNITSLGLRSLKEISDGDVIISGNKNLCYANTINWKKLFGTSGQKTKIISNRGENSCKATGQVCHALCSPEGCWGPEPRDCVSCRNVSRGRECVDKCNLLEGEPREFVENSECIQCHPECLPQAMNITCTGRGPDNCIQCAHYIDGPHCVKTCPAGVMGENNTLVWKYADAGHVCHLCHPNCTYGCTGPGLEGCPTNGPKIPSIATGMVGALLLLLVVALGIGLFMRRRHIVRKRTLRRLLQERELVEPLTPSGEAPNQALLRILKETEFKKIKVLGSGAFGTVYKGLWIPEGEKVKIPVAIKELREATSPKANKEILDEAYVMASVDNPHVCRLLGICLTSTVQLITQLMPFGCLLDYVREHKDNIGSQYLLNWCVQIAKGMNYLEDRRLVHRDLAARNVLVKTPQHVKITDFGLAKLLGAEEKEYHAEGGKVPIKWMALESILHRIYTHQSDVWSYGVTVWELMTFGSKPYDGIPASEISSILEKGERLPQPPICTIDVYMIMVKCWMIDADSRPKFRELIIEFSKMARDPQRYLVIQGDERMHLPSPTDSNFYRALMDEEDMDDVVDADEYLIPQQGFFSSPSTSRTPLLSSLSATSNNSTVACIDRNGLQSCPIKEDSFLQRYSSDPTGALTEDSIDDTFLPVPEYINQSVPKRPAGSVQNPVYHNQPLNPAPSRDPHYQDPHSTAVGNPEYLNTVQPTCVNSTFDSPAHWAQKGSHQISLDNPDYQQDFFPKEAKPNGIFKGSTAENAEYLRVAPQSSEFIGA
Procedure: as §1, §2, §3, §4, §5, §6, §7, §8, §9, §10, §11, §12, §13, §14, §15

Pharmacokinetics in dog = type: in vivo, male Beagle dog; details: Beagle dog; for pharmacokinetic properties (conclusion in words): iv and po, Tables 13 and 14; for AUC(0-t) / clearance / Vd / Cmax / Tmax / bioavailability: male, plasma; for Vd: read-out: Vss; for bioavailability: read-out: F (absolute bioavailability)
Procedure: Test animal: male Beagle dog, 3 dogs/administration route/compound, weight: 7-12 kg.
Solvent for intraveneous injection (iv) of Compound 31: 20% DMF (N,N-dimethylformamide)+20% PEG400 (polyethylene glycol 400)+60% sterile water for injection
Compound 31 (15.40 mg) was weighed, dissolved in solvent for intraveneous injection ultrasonically, and mixed homogeneously under vortexing, to get a clear and transparent compound solution at a theoretical concentration of 0.5 mg/mL.
Solvent for intraveneous injection (iv) of Compound 2, 28: 5% DMSO+10% PEG400+85% (28% HP-β-CD)
Compound 2 (20.72 mg) and Compound 28 (16.16 mg) were weighed, respectively, dissolved by adding solvent for intraveneous injection, mixed homogeneously under vortexing, placed in a 50° C. constant temperature water bath for 20 min, and mixed homogeneously under vortexing to get a clear and transparent compound solution at a theoretical concentration of 0.5 mg/mL.
Solvent for intragastric administration (po) of Compound 2, 28, 31: 0.1% Tween 80+2% HPC (hydroxypropyl cellulose)
Preparation: HPC (hydroxypropyl cellulose) (20 g) was weighed, and slowly added to purified water (1000 mL) under stirring. Tween 80 (1 mL) was added, and the mixture was stirred until it became clear, to get a solvent for intragastric administration. Compound 2 (41.77 mg), Compound 31 (31.35 mg) and Compound 28 (31.10 mg) were weighed, respectively, solvent for intragastric administration was added, and the resultant mixture was placed in a tissue grinder, and ground at a speed of 1000 r/min. After homogeneous dispersion, the solution for intragastric administration was obtained.
For PO group: 0.167, 0.5, 1, 2, 4, 6, 8, 24 h after administration.
Blood collection: 400 μL whole blood was collected from vein of dog fore limb at each time point, added to an anticoagulation tube containing K2EDTA, and centrifuged at 8000 r/min, 4° C. for 6 min in a centrifuge to separate the plasma; the separated plasma was stored in a refrigerator at −80° C.
By means of protein precipitation, to 30 μL plasma, 200 μL internal standard (acetonitrile solution containing 50 ng/mL CNX-2006) was added; the resultant mixture was vortexted for 10 min at 1500 r/min, and centrifuged at 12000 r/min for 5 min; to a suitable amount of supernatant, a suitable amount of water was added; the resultant mixture was mixed homogeneously under vortexing and analyzed by LC-MS/MS.

Chain of EGFR T790M (P00533 25-1210 T790M): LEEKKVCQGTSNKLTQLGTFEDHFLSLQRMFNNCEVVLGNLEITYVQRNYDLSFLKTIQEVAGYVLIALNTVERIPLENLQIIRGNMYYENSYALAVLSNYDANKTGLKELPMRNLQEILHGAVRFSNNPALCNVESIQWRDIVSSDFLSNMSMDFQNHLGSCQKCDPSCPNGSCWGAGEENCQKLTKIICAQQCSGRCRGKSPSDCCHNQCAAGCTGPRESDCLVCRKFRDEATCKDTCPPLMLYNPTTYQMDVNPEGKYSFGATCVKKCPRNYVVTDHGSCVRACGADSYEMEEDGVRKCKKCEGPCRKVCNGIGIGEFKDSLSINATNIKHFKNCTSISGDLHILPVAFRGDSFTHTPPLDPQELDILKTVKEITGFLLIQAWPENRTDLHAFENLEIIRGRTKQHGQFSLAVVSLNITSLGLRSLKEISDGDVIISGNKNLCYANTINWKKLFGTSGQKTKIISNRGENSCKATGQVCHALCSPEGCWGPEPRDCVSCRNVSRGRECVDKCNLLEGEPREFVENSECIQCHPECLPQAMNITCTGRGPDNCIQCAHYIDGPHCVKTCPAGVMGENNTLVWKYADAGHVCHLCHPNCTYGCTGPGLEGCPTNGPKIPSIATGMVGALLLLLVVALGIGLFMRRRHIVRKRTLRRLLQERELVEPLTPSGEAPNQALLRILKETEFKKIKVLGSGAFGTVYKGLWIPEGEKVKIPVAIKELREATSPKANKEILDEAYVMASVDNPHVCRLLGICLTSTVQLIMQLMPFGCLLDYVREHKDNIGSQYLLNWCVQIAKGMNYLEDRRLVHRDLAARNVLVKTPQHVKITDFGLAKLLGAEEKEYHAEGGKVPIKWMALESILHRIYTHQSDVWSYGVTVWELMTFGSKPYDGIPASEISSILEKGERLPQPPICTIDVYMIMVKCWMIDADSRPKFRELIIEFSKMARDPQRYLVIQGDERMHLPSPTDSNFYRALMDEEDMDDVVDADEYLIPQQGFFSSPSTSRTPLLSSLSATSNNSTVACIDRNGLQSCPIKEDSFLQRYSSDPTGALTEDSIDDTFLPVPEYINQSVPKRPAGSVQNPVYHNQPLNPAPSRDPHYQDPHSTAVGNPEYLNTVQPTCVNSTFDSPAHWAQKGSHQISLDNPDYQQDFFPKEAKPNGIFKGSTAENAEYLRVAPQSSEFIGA

## C=CC(=O)Nc1cccc(Nc2nc(Nc3ccc(C4CCN(C(C)=O)CC4)cc3OC)ncc2C(F)(F)F)c1 [Compound 2, N-(3-((2-((4-(1-acetylpiperidin-4-yl)-2-methoxyphenyl)amino)-5-(trifluoromethyl)pyrimidin-4-yl)amino)phenyl)acrylamide]
EGFR T790M; Table 1
  pIC50: 8.21
  Selectivity (WT/T790M): 89.0
EGFR L858R; Table 5
  pIC50: 7.04
  Selectivity WT/L858R: 3.7
wild-type EGFR (WT EGFR); Table 1
  pIC50: 6.26
wild-type EGFR (WT EGFR); Table 5
  pIC50: 6.46
Pharmacokinetics in dog
  pharmacokinetic properties (conclusion in words): good pharmacokinetic properties
Pharmacokinetics in dog; iv, 0.5 mg/kg
  AUC(0-t): 693 ng·h/mL
  clearance: 11.8 mL/min/kg
  Vd: 1.36 L/kg
Pharmacokinetics in dog; po, 0.54 mg/kg
  AUC(0-t): 528 ng·h/mL
  Cmax: 211 ng/mL
  Tmax: 0.5 h
  bioavailability: 70%

## C=CC(=O)Nc1cccc(Nc2nc(Nc3ccc(C4CCN(S(C)(=O)=O)CC4)cc3OC)ncc2C(F)(F)F)c1 [Compound 27, N-(3-((2-((2-methoxy-4-(1-(methylsulfonyl)piperidin-4-yl)phenyl)amino)-5-(trifluoromethyl)pyrimidin-4-yl)amino)phenyl)acrylamide]
EGFR T790M; Table 4, unit inferred
  pIC50: 8.02
EGFR T790M; Table 4
  Selectivity (WT/T790M): 90.7
EGFR L858R; Table 8
  pIC50: 7.06
wild-type EGFR (WT EGFR); Table 4, unit inferred
  pIC50: 6.06

## C=CC(=O)Nc1cccc(Nc2nc(Nc3ccc(N4CCC(N5CCOCC5)CC4)cc3OC)ncc2C(F)(F)F)c1 [Compound 28, N-(3-((2-((2-methoxy-4-(4-morpholinopiperidin-1-yl)phenyl)amino)-5-(trifluoromethyl)pyrimidin-4-yl)amino)phenyl)acrylamide]
EGFR T790M; Table 4, unit inferred
  pIC50: 8.92
EGFR T790M; Table 4
  Selectivity (WT/T790M): 60.8
EGFR L858R; Table 8
  pIC50: 7.96
wild-type EGFR (WT EGFR); Table 4, unit inferred
  pIC50: 7.14
Pharmacokinetics in dog
  pharmacokinetic properties (conclusion in words): good pharmacokinetic properties
Pharmacokinetics in dog; iv, 0.5 mg/kg
  AUC(0-t): 1580 ng·h/mL
  clearance: 5.5 mL/min/kg
  Vd: 1.1 L/kg
Pharmacokinetics in dog; po, 1.28 mg/kg
  AUC(0-t): 1820 ng·h/mL
  Cmax: 523 ng/mL
  Tmax: 1 h
  bioavailability: 46%

## C=CC(=O)Nc1cccc(Nc2nc(Nc3ccc(N4CC5(CN(C(C)=O)C5)C4)cc3OC)ncc2C(F)(F)F)c1 [Compound 31, N-(3-((2-((4-(6-acetyl-2,6-diazaspiro[3.3]heptan-2-yl)-2-methoxyphenyl)amino)-5-(trifluoromethyl)pyrimidin-4-yl)amino)phenyl)acrylamide]
EGFR T790M; Table 7
  pIC50: 8.45
  Selectivity (WT/T790M): 59.2
EGFR L858R; Table 7
  pIC50: 7.41
  Selectivity WT/L858R: 5.4
wild-type EGFR (WT EGFR); Table 7
  pIC50: 6.68
Pharmacokinetics in dog
  pharmacokinetic properties (conclusion in words): good pharmacokinetic properties
Pharmacokinetics in dog; iv, 0.5 mg/kg
  AUC(0-t): 1270 ng·h/mL
  clearance: 6.67 mL/min/kg
  Vd: 0.38 L/kg
Pharmacokinetics in dog; po, 1 mg/kg
  AUC(0-t): 545 ng·h/mL
  Cmax: 261 ng/mL
  Tmax: 1 h
  bioavailability: 23%
